Reference: patent US8846656B2, “Tetrahydropyrido-pyridine and tetrahydropyrido-pyrimidine compounds and use thereof as C5a receptor modulators” (Novartis AG, priority 2011, dated 2014)

Assays:
human C5aR = human C5aR (Homo sapiens (Human), UniProt P21730); experiment: FLIPR assay: inhibition of C5a-mediated calcium mobilization; assay type: cell-based; conditions: stable cell line over expressing human C5aR & Gα15, human C5a at EC50 (0.1-0.25 nM)
Method in brief: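 Stable cell line overexpressing human C5aR with Gα15, measured on FLIPR Tetra. Cells loaded 1 h at 37° C with calcium 5 dye and 2.5 mM probenecid in HBSS/20 mM HEPES/0.1% BSA. Compounds preincubated 30 minutes at room temperature in 1% DMSO before C5a.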

CD11b = experiment: Human whole blood CD11b up-regulation assay; assay type: cell-based; conditions: Homo sapiens, 2 nM human C5a, CD15+ granulocytes, read-out: hCD11b IC50
Method in brief: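 Heparinized human whole blood (used within 2 h) preincubated 10 min at room temperature with compound in 1% DMSO, then stimulated with 2 nM human C5a for 15 min. After anti-CD15/anti-CD11b staining on ice and RBC lysis, CD11b median fluorescence on 10,000 CD15+ granulocytes measured by flow cytometry.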

Chain of human C5aR (P21730 whole entry): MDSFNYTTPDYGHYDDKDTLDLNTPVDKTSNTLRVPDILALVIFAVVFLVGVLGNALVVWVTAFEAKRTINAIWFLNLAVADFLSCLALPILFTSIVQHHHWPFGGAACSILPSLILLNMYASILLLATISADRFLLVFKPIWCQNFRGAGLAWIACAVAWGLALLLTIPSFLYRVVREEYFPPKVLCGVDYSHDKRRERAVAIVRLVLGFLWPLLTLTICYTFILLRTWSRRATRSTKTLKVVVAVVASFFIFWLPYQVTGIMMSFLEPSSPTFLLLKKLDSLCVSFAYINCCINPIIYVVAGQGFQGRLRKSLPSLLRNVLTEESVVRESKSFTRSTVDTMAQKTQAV

SMILES | IC50 (human C5aR) [nM] | IC50 (CD11b) [nM]
CO[C@@H]1CCN(c2nc(-c3c(C)cncc3C)nc3c2CN(c2cc(C(C)C)ccc2C)CC3)CC1(C)C [Example 21-M, (R)-2-(3,5-dimethylpyridin-4-yl)-6-(5-isopropyl-2-methylphenyl)-4-(4-methoxy-3,3-dimethylpiperidin-1-yl)-5,6,7,8-tetrahydropyrido[4,3-d]pyrimidine] | 56 | 181
CO[C@@H]1CCN(c2nc(-c3c(C)cccc3C)nc3c2CN(c2cc(C(F)(F)F)ccc2C)CC3)CC1(C)C [Example 21-AB, (R)-2-(2,6-dimethylphenyl)-4-(4-methoxy-3,3-dimethylpiperidin-1-yl)-6-(2-methyl-5-(trifluoromethyl)phenyl)-5,6,7,8-tetrahydropyrido[4,3-d]pyrimidine] | 4 | 11
Cc1ccc(C(C)C)cc1N1CCc2nc(-c3c(C)ccc4[nH]nc(C)c34)nc(N3CC[C@@H](N(C)C)C3)c2C1 [Example 65-B, (R)-1-(2-(3,5-dimethyl-1H-indazol-4-yl)-6-(5-isopropyl-2-methylphenyl)-5,6,7,8-tetrahydropyrido[4,3-d]pyrimidin-4-yl)-N,N-dimethylpyrrolidin-3-amine] | 2 | 16
Cc1ccc(C(C)C)cc1N1CCc2nc(-c3c(C)ccc4[nH]nc(C)c34)nc(N3CC(N(C)C)C3)c2C1 [Example 65-A, 1-(2-(3,5-Dimethyl-1H-indazol-4-yl)-6-(5-isopropyl-2-methylphenyl)-5,6,7,8-tetrahydropyrido[4,3-d]pyrimidin-4-yl)-N,N-dimethylazetidin-3-amine] | 1 | 30
Cc1ccc(C(C)C)cc1N1CCc2nc(-c3cccc4[nH]cc(C)c34)nc(N3CCN(S(C)(=O)=O)[C@H](C)C3)c2C1 [Example 29, (R)-6-(5-isopropyl-2-methylphenyl)-2-(3-methyl-1H-indol-4-yl)-4-(3-methyl-4-(methylsulfonyl)piperazin-1-yl)-5,6,7,8-tetrahydropyrido[4,3-d]pyrimidine] | 2 | 300
CO[C@@H]1CCN(c2nc(-c3c(C)ccnc3C)nc3c2CN(c2cc(C(C)C)ccc2C)CC3)[C@H](C)C1 [Example 21-S, 2-(2,4-dimethylpyridin-3-yl)-6-(5-isopropyl-2-methylphenyl)-4-((2R,4R)-4-methoxy-2-methylpiperidin-1-yl)-5,6,7,8-tetrahydropyrido[4,3-d]pyrimidine] | 30 | 180
COC1CCN(c2nc(-c3cccc4[nH]cc(C)c34)nc3c2CN(c2cc(C(C)C)ccc2C)CC3)[C@H](C)C1 (stereo in doubt) [Example 17-R, 6-(5-isopropyl-2-methylphenyl)-4-((2R,4S)-4-methoxy-2-methylpiperidin-1-yl)-2-(3-methyl-1H-indol-4-yl)-5,6,7,8-tetrahydropyrido[4,3-d]pyrimidine] | 10 | 42
CO[C@H]1CCN(c2nc(-c3c(C)ccc4[nH]nc(C)c34)nc3c2CN(c2c(F)c(C4CC4)nn2C)CC3)CC1(C)C [Example 56-C, (S)-6-(3-cyclopropyl-4-fluoro-1-methyl-1H-pyrazol-5-yl)-2-(3,5-dimethyl-1H-indazol-4-yl)-4-(4-methoxy-3,3-dimethylpiperidin-1-yl)-5,6,7,8-tetrahydropyrido[4,3-d]pyrimidine] | 1 | 6
[2H]C1([2H])c2c(C)cc(-c3cccc4[nH]cc(C)c34)nc2CCN1c1c(C)cccc1C [Example 44-E, 6-(2,6-dimethylphenyl)-4-methyl-2-(3-methyl-1H-indol-4-yl)-5,6,7,8-(5,5-^2H2)tetrahydro-1,6-naphthyridine] | 38 | 188
CCn1nc(C2CC2)c(Cl)c1N1CCc2nc(-c3c(C)ccc4[nH]nc(C)c34)nc(N3CCOC[C@H]3C)c2C1 [Example 70-G, (R)-4-(6-(4-Chloro-3-cyclopropyl-1-ethyl-1H-pyrazol-5-yl)-2-(3,5-dimethyl-1H-indazol-4-yl)-5,6,7,8-tetrahydropyrido[4,3-d]pyrimidin-4-yl)-3-methylmorpholine] | 9 | 19
CO[C@H]1CCN(c2nc(-c3c(C)ccc4[nH]nc(C)c34)nc3c2CN(c2c(Cl)c(C4CC4)nn2C)CC3)CC1(C)C [Example 55-L, (S)-6-(4-Chloro-3-cyclopropyl-1-methyl-1H-pyrazol-5-yl)-2-(3,5-dimethyl-1H-indazol-4-yl)-4-(4-methoxy-3,3-dimethylpiperidin-1-yl)-5,6,7,8-tetrahydropyrido[4,3-d]pyrimidine] | 3 | 36
Cc1c[nH]c2cccc(-c3nc4c(c(N5CCN(CC(N)=O)[C@H](C)C5)n3)CN(c3ccccc3C(F)(F)F)CC4)c12 [Example 24-D, (R)-2-(2-methyl-4-(2-(3-methyl-1H-indol-4-yl)-6-(2-(trifluoromethyl)phenyl)-5,6,7,8 tetrahydropyrido[4,3-d]pyrimidin-4-yl)piperazin-1-yl)acetamide] | 91 | 1500
CO[C@@H]1CCN(c2nc(-c3c(C)ccc4[nH]nc(C)c34)nc3c2CN(c2cc(C(C)C)ccc2C)CC3)CC1(C)C [Example 21-AI, (R)-2-(3,5-dimethyl-1H-indazol-4-yl)-6-(5-isopropyl-2-methylphenyl)-4-(4-methoxy-3,3-dimethylpiperidin-1-yl)-5,6,7,8-tetrahydropyrido[4,3-d]pyrimidine] | 1 | 8
Cc1ccc(C(C)C)cc1N1CCc2nc(-c3cccc4[nH]cc(C)c34)nc(N3CCN(CC(N)=O)[C@H](C)C3)c2C1 [Example 24-J, (R)-2-(4-(6-(5-isopropyl-2-methylphenyl)-2-(3-methyl-1H-indol-4-yl)-5,6,7,8-tetrahydropyrido[4,3-d]pyrimidin-4-yl)-2-methylpiperazin-1-yl)acetamide] | 8 | 423
CC(=O)N1CCN(c2nc(-c3cccc4[nH]cc(C)c34)nc3c2CN(c2cc(C4CC4)ccc2C)CC3)[C@H](C)C1 [Example 25-C, (R)-1-(4-(6-(5-cyclopropyl-2-methylphenyl)-2-(3-methyl-1H-indol-4-yl)-5,6,7,8-tetrahydropyrido[4,3-d]pyrimidin-4-yl)-3-methylpiperazin-1-yl)ethanone] | 5 | 183
Cc1cc(-c2c(C(C)C)ccc3[nH]ncc23)nc2c1CN(c1c(Cl)c(C3CC3)nn1C)CC2 [Example 46-B, 6-(4-Chloro-3-cyclopropyl-1-methyl-1H-pyrazol-5-yl)-2-(5-isopropyl-1H-indazol-4-yl)-4-methyl-5,6,7,8-tetrahydro-1,6-naphthyridine] | 42 | 224
Cc1cc(-c2c(C(C)C)ccc3[nH]ncc23)nc2c1CN(c1cc(C3CC3)nn1C)CC2 [Example 46-A, 6-(3-Cyclopropyl-1-methyl-1H-pyrazol-5-yl)-2-(5-isopropyl-1H-indazol-4-yl)-4-methyl-5,6,7,8-tetrahydro-1,6-naphthyridine] | 20 | 1990
Cc1ccc(C(C)C)cc1N1CCc2nc(-c3c(C(C)C)ccc4[nH]ncc34)cc(C)c2C1 [Example 41-G, 2-(5-isopropyl-1H-indazol-4-yl)-6-(5-isopropyl-2-methylphenyl)-4-methyl-5,6,7,8-tetrahydro-1,6-naphthyridine] | 3 | 70
